Biological target: T1, Escherichia coli HSP70 family member DnaK (Escherichia coli, UniProt P0A6Y8)
T1 construct: purchased Stressgen (Ann Arbor, Mich., USA) SPP-630
Experiment: Competition ELISA: DnaK binding under influence of ThT and Congo red
Details: 20 μg/ml DnaK; 1 mM dye
Protocol: Binding of chaperones to immobilized (misfolded) protein ligands was determined using an enzyme linked immuno sorbent assay (ELISA) approach. For this purpose 50 μl/well of potential ligands at indicated concentrations or coat buffer only for control and background measurement purposes, were coated overnight at 4° C. or coated for 1 h at room temperature, with motion, in 50 mM NaHCO3 pH 9.6 (coat buffer). In general, ligands were coated at 5 μg/ml, unless stated otherwise. For example, BiP binding peptides 6BB# and oxLDL were coated at 50 μg/ml. Native haemoglobin (Sigma-Aldrich, H7379), albumin, IgIV Gammagard and ovalbumin controls were prepared from lyophilized stocks. The controls were prepared by dissolving lyophilized proteins at 1 mg/ml in PBS upon resuspending by pipetting, followed by a 30 minutes period at the roller device, at room temperature. The protein solutions were centrifuged for 10 minutes at 16,000*g and diluted in coat buffer. After coating the plates were washed at least three times with 50 mM Tris-HCl pH 7.3, 150 mM NaCl, 0.1% v/v Tween20, and blocked with Blocking reagent (Roche Diagnostics, Almere, The Netherlands; 11112589001), for 1 h at room temperature, with motion. Plates were washed three times and incubated in triplicate with indicated chaperone dilution series, at 50 μl/well, for 1 h at room temperature, with constant motion. For HSP90, 5 mM DTT is incorporated in the binding buffer (PBS/0.1% Tween20) to avoid unwanted disulfide bond formation of the HSP90. Plates were washed three times and incubated with anti-FLAG antibody (mouse antibody, M2, peroxidase conjugate; Sigma, A-8592) for BiP-FLAG-His, anti-His-tag antibody (Mouse Monoclonal Antibody, Cat. No. 70796, Novagen [0.2 mg/ml]) for HSP60, a 1:1 mix of 500-fold diluted anti-HSP90beta antibodies (Stressgen, SPA-643 [mouse monoclonal IgM], SPA-646 [rabbit polyclonal]) for HSP90 and an anti-DnaK antibody (Stressgen, 023SPA-880D [mouse monoclonal antibody]) for DnaK. After four wash cycles, secondary antibodies were added to the wells when required, 50 μl/well, for 45′ at room temperature, with motion. RAMPO and SWARPO were used at 3000 times dilution. […] In a second experiment with more immobilized misfolded proteins and controls, the detection of bound HSP90 with the mix of two anti-HSP90 antibodies was achieved by mixing 1:1500 SWARPO with 1:3000 RAMPO. After 5 washes with wash buffer followed by two washes with PBS, binding of antibodies was assessed. […] Plates were read at 450 nm. Triplicates were averaged and standard deviations calculated. […] Subsequently, sub-optimal concentrations of chaperones for binding to misfolded protein ligands are determined, and these concentrations are used for inhibition studies. […]

T1 sequence (P0A6Y8 whole entry): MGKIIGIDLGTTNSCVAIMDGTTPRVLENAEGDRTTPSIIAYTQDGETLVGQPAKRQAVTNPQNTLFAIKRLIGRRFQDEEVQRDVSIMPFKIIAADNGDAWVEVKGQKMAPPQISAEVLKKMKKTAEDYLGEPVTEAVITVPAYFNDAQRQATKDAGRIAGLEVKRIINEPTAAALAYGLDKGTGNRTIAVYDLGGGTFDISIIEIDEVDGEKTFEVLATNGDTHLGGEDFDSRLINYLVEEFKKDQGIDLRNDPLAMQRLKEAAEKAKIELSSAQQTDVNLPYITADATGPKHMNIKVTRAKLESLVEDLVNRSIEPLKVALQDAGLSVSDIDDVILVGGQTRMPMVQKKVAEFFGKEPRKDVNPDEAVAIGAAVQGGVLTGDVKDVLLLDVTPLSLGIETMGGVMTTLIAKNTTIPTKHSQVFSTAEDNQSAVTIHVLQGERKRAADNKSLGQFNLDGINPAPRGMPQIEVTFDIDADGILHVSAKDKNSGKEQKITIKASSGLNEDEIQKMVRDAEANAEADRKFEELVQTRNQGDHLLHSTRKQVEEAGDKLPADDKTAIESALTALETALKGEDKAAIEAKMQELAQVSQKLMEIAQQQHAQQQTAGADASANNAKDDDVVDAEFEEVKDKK

Compound | Binding of DnaK to immobilized HbAGE under influence of compound | Binding of DnaK to immobilized dIgIV-86 under influence of compound
Nc1c(/N=N/c2ccc(-c3ccc(/N=N/c4cc(S(=O)(=O)O)c5ccccc5c4N)cc3)cc2)cc(S(=O)(=O)O)c2ccccc12 [Congo red] | inhibit | inhibit
Cc1ccc2c(c1)sc(-c1ccc(N(C)C)cc1)[n+]2C.[Cl-] [ThT, Thioflavin T] | inhibit | inhibit

— US20100015126A1, “Methods of Binding of Cross-Beta Structures By Chaperones” (priority 2006, published 2010)
